Like-named read-outs stand apart in the source and are kept apart here.
Test system: patients with advanced metastatic cancer
Description: In this phase 1 study, dose escalation was followed by expansion cohorts of once-daily, oral M2698 in continuous 21-day cycles. Primary objectives were to determine the maximum tolerated dose (MTD), dose-limiting toxicities (DLTs), and recommended phase 2 dose (RP2D). Secondary objectives were to assess safety and tolerability, pharmacokinetics (PK, including food effect) and antitumor activity. Pharmacodynamic biomarker assessments were exploratory. Treatment was discontinued if there was disease progression, toxicity or consent withdrawal.
In Part 1, M2698 monotherapy was investigated in a dose escalation with a food effect cohort. In Part 2, M2698 was investigated as monotherapy (expansion cohort) to further characterize safety, tolerability and pharmacokinetics, and assess antitumor activity in PAM + patients without confounding markers (exploratory).
Dose escalation analysis included all patients who experienced a DLT and those who received ≥ 80% of planned M2698 doses in cycle 1 without experiencing a DLT. Safety analysis included all patients who received ≥ 1 dose of M2698. PK analysis included all patients who received ≥ 1 dose of M2698 and had measurable plasma concentrations. Dose proportionality was tested using the power model (linear regression approach on the log -transformed scale).

`NC(=O)c1cccc2c(N[C@H](CN3CCC3)c3ccc(Cl)c(C(F)(F)F)c3)ncnc12` [M2698] was tested. Which “M2698-related TEAE: Pruritus generalised” value (240 mg n=17) did it give?
The value was 0.

And the “M2698-related TEAE: Psychiatric disorders” value (240 mg n=17)?
Its value is 3.

And the “M2698-related TEAE: Rash” value (240 mg n=17)?
The value was 0.

What about the “M2698-related TEAE: Rash maculo-papular” value (240 mg n=17) of the same compound?
The value was 0.

What about the “M2698-related TEAE: Skin and subcutaneous tissue disorders” value (240 mg n=17) of the same compound?
The value was 0.

And the “M2698-related TEAE: Subjects with at least one event” value (240 mg n=17)?
The value was 9.

What about the “M2698-related TEAE: Transaminases increased” value (240 mg n=17) of the same compound?
Its value is 0.

And the “M2698-related TEAE: Tremor” value (240 mg n=17)?
The value was 1.

What about the “M2698-related TEAE: Vision blurred” value (240 mg n=17) of the same compound?
The value was 0.

What about the “M2698-related TEAE: Vomiting” value (240 mg n=17) of the same compound?
Its value is 1.

What about the “M2698-related TEAE: White blood cell count decreased” value (240 mg n=17) of the same compound?
The value was 0.

What about the “M2698-related TEAE: Abnormal dreams” value (320 mg n=12) of the same compound?
The value was 2.

What about the “M2698-related TEAE: Affect lability” value (320 mg n=12) of the same compound?
The value was 0.

And the “M2698-related TEAE: Alanine aminotransferase increased” value (320 mg n=12)?
Its value is 0.

And the “M2698-related TEAE: Amylase increased” value (320 mg n=12)?
The value was 0.

What about the “M2698-related TEAE: Anaemia” value (320 mg n=12) of the same compound?
The value was 1.

What about the “M2698-related TEAE: Angina pectoris” value (320 mg n=12) of the same compound?
Its value is 0.

What about the “M2698-related TEAE: Anxiety” value (320 mg n=12) of the same compound?
Its value is 1.

What about the “M2698-related TEAE: Aphasia” value (320 mg n=12) of the same compound?
Its value is 1.

What about the “M2698-related TEAE: Ataxia” value (320 mg n=12) of the same compound?
Its value is 1.

What about the “M2698-related TEAE: Blood and lymphatic system disorders” value (320 mg n=12) of the same compound?
Its value is 1.

And the “M2698-related TEAE: Blood creatine phosphokinase increased” value (320 mg n=12)?
Its value is 0.

And the “M2698-related TEAE: Blood creatinine increased” value (320 mg n=12)?
Its value is 1.

What about the “M2698-related TEAE: Cardiac disorders” value (320 mg n=12) of the same compound?
Its value is 0.

What about the “M2698-related TEAE: Cognitive disorder” value (320 mg n=12) of the same compound?
The value was 0.

What about the “M2698-related TEAE: Constipation” value (320 mg n=12) of the same compound?
The value was 2.

What about the “M2698-related TEAE: Decreased appetite” value (320 mg n=12) of the same compound?
The value was 1.

What about the “M2698-related TEAE: Delusion” value (320 mg n=12) of the same compound?
Its value is 1.

And the “M2698-related TEAE: Depression” value (320 mg n=12)?
Its value is 1.

What about the “M2698-related TEAE: Diarrhoea” value (320 mg n=12) of the same compound?
The value was 4.

And the “M2698-related TEAE: Diarrhoea haemorrhagic” value (320 mg n=12)?
Its value is 0.

And the “M2698-related TEAE: Dizziness” value (320 mg n=12)?
The value was 0.

What about the “M2698-related TEAE: Dry eye” value (320 mg n=12) of the same compound?
Its value is 0.

What about the “M2698-related TEAE: Dry mouth” value (320 mg n=12) of the same compound?
Its value is 0.

And the “M2698-related TEAE: Dysgeusia” value (320 mg n=12)?
Its value is 0.

What about the “M2698-related TEAE: Dyspepsia” value (320 mg n=12) of the same compound?
Its value is 1.

And the “M2698-related TEAE: Dysphagia” value (320 mg n=12)?
Its value is 0.

What about the “M2698-related TEAE: Energy increased” value (320 mg n=12) of the same compound?
Its value is 0.

And the “M2698-related TEAE: Erythema” value (320 mg n=12)?
The value was 0.

What about the “M2698-related TEAE: Euphoric mood” value (320 mg n=12) of the same compound?
The value was 0.

And the “M2698-related TEAE: Eye disorders” value (320 mg n=12)?
Its value is 0.

What about the “M2698-related TEAE: Fatigue” value (320 mg n=12) of the same compound?
The value was 1.

And the “M2698-related TEAE: Gamma-glutamyltransferase increased” value (320 mg n=12)?
The value was 0.

And the “M2698-related TEAE: Gastrointestinal disorders” value (320 mg n=12)?
The value was 8.

And the “M2698-related TEAE: Gastrooesophageal reflux disease” value (320 mg n=12)?
Its value is 0.

And the “M2698-related TEAE: General disorders and administration site conditions” value (320 mg n=12)?
Its value is 2.

What about the “M2698-related TEAE: Headache” value (320 mg n=12) of the same compound?
Its value is 0.

And the “M2698-related TEAE: Hyperhidrosis” value (320 mg n=12)?
Its value is 1.

What about the “M2698-related TEAE: Hypokalaemia” value (320 mg n=12) of the same compound?
Its value is 1.

What about the “M2698-related TEAE: Hypomagnesaemia” value (320 mg n=12) of the same compound?
The value was 1.

And the “M2698-related TEAE: Insomnia” value (320 mg n=12)?
The value was 1.

And the “M2698-related TEAE: Investigations” value (320 mg n=12)?
The value was 1.

And the “M2698-related TEAE: Lipase increased” value (320 mg n=12)?
The value was 0.

And the “M2698-related TEAE: Lymphopenia” value (320 mg n=12)?
The value was 0.

And the “M2698-related TEAE: Metabolism and nutrition disorders” value (320 mg n=12)?
The value was 2.

What about the “M2698-related TEAE: Mucosal inflammation” value (320 mg n=12) of the same compound?
Its value is 1.

And the “M2698-related TEAE: Nausea” value (320 mg n=12)?
The value was 6.

And the “M2698-related TEAE: Nervous system disorders” value (320 mg n=12)?
Its value is 4.

What about the “M2698-related TEAE: Nightmare” value (320 mg n=12) of the same compound?
The value was 0.

What about the “M2698-related TEAE: Onychomadesis” value (320 mg n=12) of the same compound?
The value was 0.

And the “M2698-related TEAE: Paranoia” value (320 mg n=12)?
The value was 1.

And the “M2698-related TEAE: Photosensitivity reaction” value (320 mg n=12)?
Its value is 1.

What about the “M2698-related TEAE: Posterior reversible encephalopathy syndrome” value (320 mg n=12) of the same compound?
Its value is 0.

What about the “M2698-related TEAE: Pruritus generalised” value (320 mg n=12) of the same compound?
Its value is 1.

What about the “M2698-related TEAE: Psychiatric disorders” value (320 mg n=12) of the same compound?
The value was 3.

And the “M2698-related TEAE: Rash” value (320 mg n=12)?
The value was 0.

And the “M2698-related TEAE: Rash maculo-papular” value (320 mg n=12)?
Its value is 0.

What about the “M2698-related TEAE: Skin and subcutaneous tissue disorders” value (320 mg n=12) of the same compound?
Its value is 3.

What about the “M2698-related TEAE: Subjects with at least one event” value (320 mg n=12) of the same compound?
Its value is 9.

And the “M2698-related TEAE: Transaminases increased” value (320 mg n=12)?
Its value is 0.

What about the “M2698-related TEAE: Tremor” value (320 mg n=12) of the same compound?
Its value is 3.

What about the “M2698-related TEAE: Vision blurred” value (320 mg n=12) of the same compound?
The value was 0.

And the “M2698-related TEAE: Vomiting” value (320 mg n=12)?
The value was 0.

And the “M2698-related TEAE: White blood cell count decreased” value (320 mg n=12)?
The value was 0.

And the “M2698-related TEAE: Abnormal dreams” value (380 mg n=4)?
Its value is 0.

And the “M2698-related TEAE: Affect lability” value (380 mg n=4)?
Its value is 0.

And the “M2698-related TEAE: Alanine aminotransferase increased” value (380 mg n=4)?
Its value is 0.

And the “M2698-related TEAE: Amylase increased” value (380 mg n=4)?
Its value is 0.

And the “M2698-related TEAE: Anaemia” value (380 mg n=4)?
The value was 0.

And the “M2698-related TEAE: Angina pectoris” value (380 mg n=4)?
Its value is 0.

And the “M2698-related TEAE: Anxiety” value (380 mg n=4)?
Its value is 0.

What about the “M2698-related TEAE: Aphasia” value (380 mg n=4) of the same compound?
Its value is 0.

And the “M2698-related TEAE: Ataxia” value (380 mg n=4)?
Its value is 0.

And the “M2698-related TEAE: Blood and lymphatic system disorders” value (380 mg n=4)?
The value was 0.

And the “M2698-related TEAE: Blood creatine phosphokinase increased” value (380 mg n=4)?
The value was 1.

And the “M2698-related TEAE: Blood creatinine increased” value (380 mg n=4)?
The value was 0.

What about the “M2698-related TEAE: Cardiac disorders” value (380 mg n=4) of the same compound?
Its value is 0.

What about the “M2698-related TEAE: Cognitive disorder” value (380 mg n=4) of the same compound?
The value was 0.

What about the “M2698-related TEAE: Constipation” value (380 mg n=4) of the same compound?
Its value is 0.

What about the “M2698-related TEAE: Decreased appetite” value (380 mg n=4) of the same compound?
The value was 0.

And the “M2698-related TEAE: Delusion” value (380 mg n=4)?
The value was 0.

And the “M2698-related TEAE: Depression” value (380 mg n=4)?
Its value is 0.

And the “M2698-related TEAE: Diarrhoea” value (380 mg n=4)?
Its value is 0.

What about the “M2698-related TEAE: Diarrhoea haemorrhagic” value (380 mg n=4) of the same compound?
Its value is 1.

And the “M2698-related TEAE: Dizziness” value (380 mg n=4)?
The value was 0.

What about the “M2698-related TEAE: Dry eye” value (380 mg n=4) of the same compound?
Its value is 0.

What about the “M2698-related TEAE: Dry mouth” value (380 mg n=4) of the same compound?
The value was 0.

What about the “M2698-related TEAE: Dysgeusia” value (380 mg n=4) of the same compound?
The value was 0.

And the “M2698-related TEAE: Dyspepsia” value (380 mg n=4)?
The value was 0.

From publication PMC8371902, “Phase 1 study of M2698, a p70S6K/AKT dual inhibitor, in patients with advanced cancer” (Journal of Hematology & Oncology, 2021)
